Laboratory results taken from US8952024B2, “Herbicidal pyrimidone derivatives” (E I du Pont de Nemours and Company, priority 2009, dated 2015).

Columns and labels:
Assay type in all cases: in vivo
[1] = test system: Italian ryegrass (Lolium multiflorum); assay: Test B pre-/postemergence plant response; settings: for Plant response rating, Ryegrass, Italian: Postemergence
Method in brief: (§1)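 Visual ratings on a 0–100 scale (100 = complete control) were made versus untreated controls 13–15 days after treatment in a greenhouse. Compounds in surfactant-containing non-phytotoxic solvent were applied preemergence to seeds in loam–sand blend or postemergence to 1- to 4-leaf plants (2–18 cm).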

[2] = test system: Surinam grass (Brachiaria decumbens); assay: Test B pre-/postemergence plant response; settings: for Plant response rating, Surinam Grass: Postemergence
Method in brief: as §1

[3] = test system: bermudagrass (Cynodon dactylon); assay: Test B pre-/postemergence plant response; settings: for Bermudagrass plant response rating (0 to 100 scale): 62 g ai/ha, postemergence, 0 is no effect, 100 is complete control; for Plant response rating, Bermudagrass: Postemergence
Method in brief: as §1

[4] = test system: blackgrass (Alopecurus myosuroides); assay: Test B pre-/postemergence plant response; settings: for Blackgrass plant response rating (0 to 100 scale): 62 g ai/ha, postemergence, 0 is no effect, 100 is complete control; for Plant response rating, Blackgrass: Postemergence
Method in brief: as §1

[5] = test system: corn (Zea mays); assay: Test B pre-/postemergence plant response; settings: for Plant response rating, Corn: Postemergence
Method in brief: as §1

[6] = test system: johnsongrass (Sorghum halepense); assay: Test B pre-/postemergence plant response; settings: for Plant response rating, Johnsongrass: Postemergence
Method in brief: as §1

[7] = test system: lambsquarters (Chenopodium album); assay: Test B pre-/postemergence plant response; settings: for Plant response rating, Lambsquarters: Postemergence
Method in brief: as §1

[8] = test system: large crabgrass (Digitaria sanguinalis); assay: Test B pre-/postemergence plant response; settings: for Plant response rating, Crabgrass, Large: Postemergence
Method in brief: as §1

[9] = test system: ragweed (common ragweed, Ambrosia elatior); assay: Test B pre-/postemergence plant response; settings: for Plant response rating, Ragweed: Postemergence
Method in brief: as §1

[10] = test system: soybean (Glycine max); assay: Test B pre-/postemergence plant response; settings: for Plant response rating, Soybean: Postemergence
Method in brief: as §1

[11] = test system: velvetleaf (Abutilon theophrasti); assay: Test B pre-/postemergence plant response; settings: for Plant response rating, Velvetleaf: Postemergence
Method in brief: as §1

[12] = test system: wild oat (Avena fatua); assay: Test B pre-/postemergence plant response; settings: for Plant response rating, Oat, Wild: Postemergence
Method in brief: as §1

[13] = test system: woolly cupgrass (Eriochloa villosa); assay: Test B pre-/postemergence plant response; settings: for Plant response rating, Cupgrass, Woolly: Postemergence
Method in brief: as §1

[14] = test system: yellow nutsedge (Cyperus esculentus); assay: Test B pre-/postemergence plant response; settings: for Plant response rating, Nutsedge, Yellow: Postemergence
Method in brief: as §1

[15] = test system: canarygrass (Phalaris minor); assay: Test B postemergence plant response; settings: for Plant response rating, Canarygrass: Postemergence
Method in brief: (§2)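 Plants at the 1- to 4-leaf stage (2 to 18 cm tall), grown in pots of peat moss/vermiculite medium with wetting agent and starter nutrients, received postemergence applications of test chemicals. After 13 to 15 days in a greenhouse, injury was rated visually against untreated controls on a 0 (no effect) to 100 (complete control) scale.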

[16] = test system: chickweed (Stellaria media); assay: Test B postemergence plant response; settings: for Plant response rating, Chickweed: Postemergence
Method in brief: as §2

[17] = test system: windgrass (Apera spica-venti); assay: Test B postemergence plant response; settings: for Plant response rating, Windgrass: Postemergence
Method in brief: as §2

[18] = test system: winter barley (Hordeum vulgare); assay: Test B postemergence plant response; settings: for Barley plant response rating (0 to 100 scale): 62 g ai/ha, postemergence, 0 is no effect, 100 is complete control; for Plant response rating, Barley: Postemergence
Method in brief: as §2

[19] = 62 g ai/ha, postemergence, 0 is no effect, 100 is complete control, 13 to 15 days
[20] = 31 g ai/ha, 0 to 100 scale (0 no effect, 100 complete control)
[21] = 125 g ai/ha, scale 0 to 100 (0 no effect, 100 complete control)
[22] = 250 g ai/ha, scale 0 to 100 (0 no effect, 100 complete control), 13 to 15 days

## O=C1CCCC(O)=C1C(=O)c1cnc(-c2ccccc2)n(C2CCCCCC2)c1=O [Compound 130]
[1]; [19]
  Ryegrass, Italian plant response rating (0 to 100 scale): 0
[1]; [20]
  Plant response rating, Ryegrass, Italian: 0
[1]; [21]
  Plant response rating, Ryegrass, Italian: 0
[1]; [22]
  Plant response rating, Ryegrass, Italian: 5
[2]; [19]
  Surinam Grass plant response rating (0 to 100 scale): 80
[2]; [20]
  Plant response rating, Surinam Grass: 80
[2]; [21]
  Plant response rating, Surinam Grass: 80
[2]; [22]
  Plant response rating, Surinam Grass: 90
[3]; 13 to 15 days
  Bermudagrass plant response rating (0 to 100 scale): 90
[3]; [20]
  Plant response rating, Bermudagrass: 75
[3]; [21]
  Plant response rating, Bermudagrass: 90
[3]; [22]
  Plant response rating, Bermudagrass: 95
[4]; 13 to 15 days
  Blackgrass plant response rating (0 to 100 scale): 5
[4]; [20]
  Plant response rating, Blackgrass: 0
[4]; [21]
  Plant response rating, Blackgrass: 5
[4]; [22]
  Plant response rating, Blackgrass: 5
[5]; [19]
  Corn plant response rating (0 to 100 scale): 60
[5]; [20]
  Plant response rating, Corn: 55
[5]; [21]
  Plant response rating, Corn: 80
[5]; [22]
  Plant response rating, Corn: 80
[6]; [19]
  Johnsongrass plant response rating (0 to 100 scale): 60
[6]; [20]
  Plant response rating, Johnsongrass: 60
[6]; [21]
  Plant response rating, Johnsongrass: 80
[6]; [22]
  Plant response rating, Johnsongrass: 80
[7]; [19]
  Lambsquarters plant response rating (0 to 100 scale): 100
[7]; [20]
  Plant response rating, Lambsquarters: 98
[7]; [21]
  Plant response rating, Lambsquarters: 100
[7]; [22]
  Plant response rating, Lambsquarters: 100
[8]; [19]
  Crabgrass, Large plant response rating (0 to 100 scale): 85
[8]; [20]
  Plant response rating, Crabgrass, Large: 85
[8]; [21]
  Plant response rating, Crabgrass, Large: 95
[8]; [22]
  Plant response rating, Crabgrass, Large: 100
[9]; [19]
  Ragweed plant response rating (0 to 100 scale): 90
[9]; [20]
  Plant response rating, Ragweed: 85
[9]; [21]
  Plant response rating, Ragweed: 98
[9]; [22]
  Plant response rating, Ragweed: 98
[10]; [19]
  Soybean plant response rating (0 to 100 scale): 98
[10]; [20]
  Plant response rating, Soybean: 98
[10]; [21]
  Plant response rating, Soybean: 98
[10]; [22]
  Plant response rating, Soybean: 100
[11]; [19]
  Velvetleaf plant response rating (0 to 100 scale): 95
[11]; [20]
  Plant response rating, Velvetleaf: 95
[11]; [21]
  Plant response rating, Velvetleaf: 98
[11]; [22]
  Plant response rating, Velvetleaf: 100
[12]; [19]
  Oat, Wild plant response rating (0 to 100 scale): 30
[12]; [20]
  Plant response rating, Oat, Wild: 20
[12]; [21]
  Plant response rating, Oat, Wild: 40
[12]; [22]
  Plant response rating, Oat, Wild: 60
[13]; [19]
  Cupgrass, Woolly plant response rating (0 to 100 scale): 85
[13]; [20]
  Plant response rating, Cupgrass, Woolly: 80
[13]; [21]
  Plant response rating, Cupgrass, Woolly: 85
[13]; [22]
  Plant response rating, Cupgrass, Woolly: 90
[14]; [19]
  Nutsedge, Yellow plant response rating (0 to 100 scale): 20
[14]; [20]
  Plant response rating, Nutsedge, Yellow: 10
[14]; [21]
  Plant response rating, Nutsedge, Yellow: 35
[14]; [22]
  Plant response rating, Nutsedge, Yellow: 40
[15]; [19]
  Canarygrass plant response rating (0 to 100 scale): 20
[15]; [20]
  Plant response rating, Canarygrass: 5
[15]; [21]
  Plant response rating, Canarygrass: 20
[15]; [22]
  Plant response rating, Canarygrass: 25
[16]; [19]
  Chickweed plant response rating (0 to 100 scale): 98
[16]; [20]
  Plant response rating, Chickweed: 98
[16]; [21]
  Plant response rating, Chickweed: 100
[16]; [22]
  Plant response rating, Chickweed: 100
[17]; [19]
  Windgrass plant response rating (0 to 100 scale): 65
[17]; [20]
  Plant response rating, Windgrass: 60
[17]; [21]
  Plant response rating, Windgrass: 75
[17]; [22]
  Plant response rating, Windgrass: 85
[18]; 13 to 15 days
  Barley plant response rating (0 to 100 scale): 0
[18]; [20]
  Plant response rating, Barley: 0
[18]; [21]
  Plant response rating, Barley: 0
[18]; [22]
  Plant response rating, Barley: 0

## O=C1CCCC(O)=C1C(=O)c1cnc(C2CC2)n(C2CCCCC2)c1=O [Compound 160]
[1]; [20]
  Plant response rating, Ryegrass, Italian: 0
[1]; [21]
  Plant response rating, Ryegrass, Italian: 35
[1]; [22]
  Plant response rating, Ryegrass, Italian: 35
[2]; [20]
  Plant response rating, Surinam Grass: 40
[2]; [21]
  Plant response rating, Surinam Grass: 60
[2]; [22]
  Plant response rating, Surinam Grass: 75
[3]; 13 to 15 days
  Bermudagrass plant response rating (0 to 100 scale): 75
[3]; [20]
  Plant response rating, Bermudagrass: 65
[3]; [21]
  Plant response rating, Bermudagrass: 90
[3]; [22]
  Plant response rating, Bermudagrass: 95
[4]; 13 to 15 days
  Blackgrass plant response rating (0 to 100 scale): 10
[4]; [20]
  Plant response rating, Blackgrass: 5
[4]; [21]
  Plant response rating, Blackgrass: 20
[4]; [22]
  Plant response rating, Blackgrass: 25
[5]; [20]
  Plant response rating, Corn: 15
[5]; [21]
  Plant response rating, Corn: 50
[5]; [22]
  Plant response rating, Corn: 60
[6]; [20]
  Plant response rating, Johnsongrass: 45
[6]; [21]
  Plant response rating, Johnsongrass: 65
[6]; [22]
  Plant response rating, Johnsongrass: 75
[7]; [20]
  Plant response rating, Lambsquarters: 95
[7]; [21]
  Plant response rating, Lambsquarters: 98
[7]; [22]
  Plant response rating, Lambsquarters: 98
[8]; [20]
  Plant response rating, Crabgrass, Large: 80
[8]; [21]
  Plant response rating, Crabgrass, Large: 95
[8]; [22]
  Plant response rating, Crabgrass, Large: 95
[9]; [20]
  Plant response rating, Ragweed: 80
[9]; [21]
  Plant response rating, Ragweed: 98
[9]; [22]
  Plant response rating, Ragweed: 98
[10]; [20]
  Plant response rating, Soybean: 85
[10]; [21]
  Plant response rating, Soybean: 98
[10]; [22]
  Plant response rating, Soybean: 98
[11]; [20]
  Plant response rating, Velvetleaf: 90
[11]; [21]
  Plant response rating, Velvetleaf: 100
[11]; [22]
  Plant response rating, Velvetleaf: 100
[12]; [20]
  Plant response rating, Oat, Wild: 10
[12]; [21]
  Plant response rating, Oat, Wild: 50
[12]; [22]
  Plant response rating, Oat, Wild: 60
[13]; [20]
  Plant response rating, Cupgrass, Woolly: 65
[13]; [21]
  Plant response rating, Cupgrass, Woolly: 85
[13]; [22]
  Plant response rating, Cupgrass, Woolly: 95
[14]; [20]
  Plant response rating, Nutsedge, Yellow: 65
[14]; [21]
  Plant response rating, Nutsedge, Yellow: 80
[14]; [22]
  Plant response rating, Nutsedge, Yellow: 80
[15]; [20]
  Plant response rating, Canarygrass: 5
[15]; [21]
  Plant response rating, Canarygrass: 20
[15]; [22]
  Plant response rating, Canarygrass: 35
[16]; [20]
  Plant response rating, Chickweed: 85
[16]; [21]
  Plant response rating, Chickweed: 95
[16]; [22]
  Plant response rating, Chickweed: 100
[17]; [20]
  Plant response rating, Windgrass: 20
[17]; [21]
  Plant response rating, Windgrass: 60
[17]; [22]
  Plant response rating, Windgrass: 80
[18]; 13 to 15 days
  Barley plant response rating (0 to 100 scale): 30
[18]; [20]
  Plant response rating, Barley: 5
[18]; [21]
  Plant response rating, Barley: 35
[18]; [22]
  Plant response rating, Barley: 50
